Reference: patent publication US20100190849A1, “Novel Clerodanes and Methods for Repelling Arthropods” (priority 2006, published 2010)
Marks after values point to notes of the source that are not given here.

How the values were obtained:
[1] = tested on: Anopheles stephensi; assay: K & D module mosquito anti-biting (repellent) bioassay; assay type: in vivo; conditions: 25 nmol compound/cm^2 cloth; for Proportion Not Biting: Exp. 7, 56 replicates; for repellent activity (in words): Experiment 7
Excerpt: Insects: Ae. aegypti(L.) (red eye Liverpool strain) and An. stephensi Liston used in the study were from colonies maintained at the Walter Reed Army Institute of Research, Silver Spring, Md. The insects were reared by feeding larvae ground tropical fish flakes (Tetramin Tropical Fish Flakes, Tetra Sales, Blacksburg, Va., www.tetra-fish.com)(Gerberg, E. j., et al., Manual for mosquito rearing and experimental techniques. Amer. Mosq. Control Assoc. Bull. No. 5 (revised), 1994, AMCA. inc., Lake Charles, La.). Adults were maintained in a photoperiod of 12:12 (L:D) h at 27° C. and 80% RH with cotton pads moistened with 10% aqueous sucrose solution. Mated females were 5-15 d old when they were used in bioassays. Ae. aegypti females had access only to water 24 h and neither food nor water for another 24 h before testing. An. stephensi females were provided with water alone 24 h before testing.
Mosquito Bioassay Methods: Experiment were conducted by using, a six-celled in vitro Klun & Debboun (K & D) module bioassay system developed by klun et al. (Klum J. A., et al., Journal of the American Mosquito Control Association. 21: 64-70 (2005)) for quantitative, evaluation of mosquito-repellent (anti-biting) properties of candidate repellent compounds for human use.
(§1) Plant extracts, fractions, or isolated pure plant derived compounds in 95% ethanol solution were each randomly applied to six-4×5 cm areas of organdy cloth and positioned over the membrane-covered blood. A replicate consisted of six treatments: four test chemicals or extract fractions, 95% ethanol treated cloth as control and unfractionated plant extract or a standard repellent compound, (1S, 2′S)-2-methylpiperidinyl-3-cyclohexen-1-carboxamide (SS220) at 25 nmol/cm^2 cloth. The 25 nmol SS220/cm^2 cloth dose was used as a standard, because it was known from human volunteer and in vitro assays to consistently suppress mosquito biting by 80% or more compared to controls in replicated assays (Klun, J. A., et al., Journal of the American Mosquito Control Association, 21: 64-70 (2005)). […] Routinely, a six-celled K & D module containing five mosquitoes/cell was positioned over cloth treatments covering the six blood-membrane wells, and trap doors of the K&D modules were opened to expose the treatments to the sets of mosquitoes. After a 3 minute exposure, the number of mosquitoes biting through cloth treatments in each cell was recorded and mosquitoes were prodded back into the cells. In Experiment 8, we retained all mosquitoes in their respective K&D module cells, each fitted with a water-moist piece of cotton, and observed the mosquitoes for total mosquito toxic knockdown at 6 min, 1 hr, and 24 hr post-treatment exposure. Experiments were replicated 12, 18, 32, or 56 times. Thus, 60, 90, 160. or 280 mosquitoes were tested against each treatment depending on the experiment, and the proportion of mosquitoes not biting for each treatment was calculated. For each experiment, conducted in different time periods, logistic regression was used to make two sets of one degree-of-freedom contrasts (t-tests): treatments vs. control and treatments vs. SS220 for anti-biting activity within each experiment. The level of significance was set at P=0.05. In all, we conducted 8 biological experiments, and all experiments used Ae. aegypti as the test mosquito with exception of Experiment 7 which used An. stephensi.
(§2) Experiments 6 and 7: These experiments compared the anti-biting activities of SS-220, and plant-isolated callicarpenal, humulene epoxide II, intermedeol and spathulenol at 25 nmol compound/cm^2 cloth versus control against Ae. aegypti and An. stephensi, respectively. Experiment 6 was replicated 32 times and 7 had 56 replicates

[2] = tested on: Aedes aegypti; assay: as above; assay type: in vivo
Protocol: Insects: Ae. aegypti(L.) (red eye Liverpool strain) and An. stephensi Liston used in the study were from colonies maintained at the Walter Reed Army Institute of Research, Silver Spring, Md. […] Adults were maintained in a photoperiod of 12:12 (L:D) h at 27° C. and 80% RH with cotton pads moistened with 10% aqueous sucrose solution. Mated females were 5-15 d old when they were used in bioassays. Ae. aegypti females had access only to water 24 h and neither food nor water for another 24 h before testing. An. stephensi females were provided with water alone 24 h before testing.
Routinely, a six-celled K & D module containing five mosquitoes/cell was positioned over cloth treatments covering the six blood-membrane wells, and trap doors of the K&D modules were opened to expose the treatments to the sets of mosquitoes. After a 3 minute exposure, the number of mosquitoes biting through cloth treatments in each cell was recorded and mosquitoes were prodded back into the cells. […] Experiments were replicated 12, 18, 32, or 56 times. Thus, 60, 90, 160. or 280 mosquitoes were tested against each treatment depending on the experiment, and the proportion of mosquitoes not biting for each treatment was calculated. For each experiment, conducted in different time periods, logistic regression was used to make two sets of one degree-of-freedom contrasts (t-tests): treatments vs. control and treatments vs. SS220 for anti-biting activity within each experiment. The level of significance was set at P=0.05. In all, we conducted 8 biological experiments, and all experiments used Ae. aegypti as the test mosquito with exception of Experiment 7 which used An. stephensi.
Each experiment was replicated 18 times.
Experiments 3, 4, and 5: In each of these experiments, chromatographic fractions of essential oil at their respective percentage compositions of 100 μg essential oil/cm^2 cloth, 100 μg unfractionated essential oil/cm^2 cloth, 25 nmol SS-220/cm^2 cloth and control were compared for mosquito anti-biting activity. Each experiment was replicated 18 times.
as §2
The percentage composition of the mixture was a normalized percentage of active components in C. japonica essential oil based upon GC-MS analysis total ion Area % analysis based on largest peaks. Other treatments in the experiment were SS220, callicarpenal, intermedeol, and spathulenol each at 25 nmol/cm^2 cloth versus control.

[3] = tested on: Aedes aegypti; assay: Total mosquito toxic knockdown after K & D module exposure (Experiment 8); assay type: in vivo; conditions: Exp. 8, 25 nmol/cm^2 cloth; for Total Knock down 6 min: dead mosquitoes 6 min post-treatment exposure; for Total knock down 1 hr: dead mosquitoes 1 hr post-treatment exposure; for Total knock down 24 hr: dead mosquitoes 24 hr post-treatment exposure
Excerpt: as §1
Experiment 8: This experiment (12 replicates) compared the antibiting activities of a mixture (25 nmol/cm^2 cloth) of 11.5% callicarpenal, 47.1% intermedeol, and 41.4% spathulenol. The percentage composition of the mixture was a normalized percentage of active components in C. japonica essential oil based upon GC-MS analysis total ion Area % analysis based on largest peaks. Other treatments in the experiment were SS220, callicarpenal, intermedeol, and spathulenol each at 25 nmol/cm^2 cloth versus control. In addition to measurement of anti-biting activity, the number of dead mosquitoes observed at three time intervals were recorded for the six treatments.

[4] = tested on: Aedes aegypti; conditions: in vivo; cited from earlier work
[5] = tested on: mosquito; conditions: 25 nmol SS220/cm^2 cloth; replicated assays; cited from earlier work
[6] = tested on: An. stephensi; conditions: in vivo; cited from earlier work
[7] = Exp. 6, 25 nmol compound/cm^2 cloth, 32 replicates
[8] = Experiment 6, 25 nmol compound/cm^2 cloth
[9] = Table 8, Example 3, synthetic compounds, dose not given
[10] = Table 7, Example 2, synthetic compounds, dose not given
[11] = Exp. 8, 25 nmol/cm^2 cloth, 12 replicates

Molecule: C/C1=C\CC(C)(C)/C=C/C[C@@]2(C)O[C@@H]2CC1 [humulene epoxide II]
- Proportion Not Biting [1]: 0.58^a
- repellent activity (in words) [1]: not different from the control
- Proportion Not Biting [2, 7]: 0.48^a
- repellent activity (in words) [2, 8]: no repellent activity

Molecule: α-epoxycallicarpenal
- biting deterrent efficacy (in words) ([2]; Example 3, Table 8): equivalent to callicarpenal
- Proportion Not Biting [2, 9]: 0.68^b

Molecule: CCC(C)OC(=O)N1CCCCC1CCO (stereo not shown) [picaridin, 2-(2-hydroxyethyl)-1piperidinecarboxylic acid 1-methylpropyl ester, reference compound]
- Proportion Not Biting [2, 10]: 0.62^b

Molecule: CC1=CCC[C@@H]2[C@@](C)(CCO)[C@H](C)CC[C@@]12C [13,14,15,16-tetranorclerod-3-en-12-ol]
- biting deterrent efficacy (in words) ([2]; Example 2, Table 7): equivalent to both callicarpenal and picaridin
- Proportion Not Biting [2, 10]: 0.68^b

Molecule: C[C@@H]1CC[C@]2(C)[C@H](CC[C@@H]3O[C@@]32C)[C@@]1(C)CC=O [β-epoxycallicarpenal]
- biting deterrent efficacy (in words) ([2]; Example 3, Table 8): equivalent to callicarpenal
- Proportion Not Biting [2, 9]: 0.70^b

Molecule: C=C1CC[C@@H]2[C@H]([C@H]3[C@H]1CC[C@]3(C)O)C2(C)C [spathulenol, (1R,4S,5R,6R,7R)-aromadendr-10(14)-en-4-ol]
- Proportion Not Biting [1]: 0.75^c
- repellent activity (in words) [1]: as effective as SS220
- Total Knock down 6 min [3]: 1
- Total knock down 1 hr [3]: 2
- Total knock down 24 hr [3]: 0
- Proportion Not Biting [2, 7]: 0.73^c
- Proportion Not Biting [2, 11]: 0.48^b
- repellent activity (in words) [2, 8]: equally active
- repellent activity (in words) ([2]; Experiment 8, 25 nmol/cm^2 cloth): significantly different from the control

Molecule: C[C@H]1CCCCN1C(=O)[C@@H]1CC=CCC1 [SS220, (1S, 2′S)-2-methylpiperidinyl-3-cyclohexen-1-carboxamide, reference compound]
- repellent activity compared with bench mark repellents (in words) [4]: more effective than Bayrepel
- Proportion Not Biting [1]: 0.78^c
- Total Knock down 6 min [3]: 0
- Total knock down 1 hr [3]: 1
- Total knock down 24 hr [3]: 2
- suppression of mosquito biting compared to controls [5]: ≥ 80%
- Proportion Not Biting ([2]; Exp. 1, 25 nmole/cm^2 cloth, 3 minute exposure): 0.81^c
- Proportion Not Biting ([2]; Exp. 2, 25 nmole/cm^2 cloth): 0.90^c
- Proportion Not Biting ([2]; Exp. 3, 25 nmole/cm^2): 1.00^c
- Proportion Not Biting ([2]; Exp. 4, 25 nmole/cm^2): 0.92^c
- Proportion Not Biting ([2]; Exp. 5, 25 nmole/cm^2): 0.95^c
- Proportion Not Biting [2, 7]: 0.80^c
- Proportion Not Biting [2, 11]: 0.67^c
- repellent activity compared with bench mark repellents (in words) [6]: equivalent to bench mark repellent compounds Deet and Bayrepel
